# In ChEMBL document CHEMBL3507680, “University of Dundee, Gates Library screen for HepG2 cell viability”:
# Test: Human HepG2 cell viability assay in 384 well format
# Assay type: toxicity, cell-based
# Parameters: dose 125 nL, time 70.5 hour; concentration not given beside the values
# Conditions: HepG2 cells, read-out: Inhibition
compound,measurement,value
COCC(=O)N1CCCN(Cc2cc(O)c3ccccc3n2)CC1,cytotoxicity at 70.5 h,-9.45%
Cc1cccc(N2CCOCC3(C2)CN(c2ccoc2)C(=O)CO3)n1 (centres undefined),cytotoxicity at 70.5 h,6.55%
Cn1nccc1CNC(=O)Cn1nc(C(F)(F)F)cc1C1CC1,cytotoxicity at 70.5 h,-10.5%
CC(=O)NC(C)C(=O)Nc1ccc(OCc2cccc(F)c2)cc1C (centres undefined),cytotoxicity at 70.5 h,-9.98%
CC(C)N(C(=O)c1ccnc(OCC(F)(F)F)c1)c1cccnc1,cytotoxicity at 70.5 h,-12.7%
Cc1cc(C(=O)O)cc(S(=O)(=O)Nc2ccc3c(c2)OCO3)c1C,cytotoxicity at 70.5 h,20.2%
CC(C)c1cc(C(=O)NCCN2CCOCC2)nc(N2CCCC2)n1,cytotoxicity at 70.5 h,-3.85%
NC(=O)NC(=O)C(c1ccccc1)N1CCN(Cc2ccsc2)CC1 (centres undefined),cytotoxicity at 70.5 h,-7.31%
O=C(NCCc1cccs1)[C@H]1CO[C@H]2CCNC[C@H]2C1,cytotoxicity at 70.5 h,-15%
CCN(CC)C(=O)c1cc(-c2cccc(Cl)c2)no1,cytotoxicity at 70.5 h,-5.28%
O=C(NCCCc1nc(=O)[nH][nH]1)Nc1ccc(Cl)cc1,cytotoxicity at 70.5 h,-13.5%
Cc1nc(CN2CCN(C(=O)NC(C)Cn3ccnc3)CC2)cs1 (centres undefined),cytotoxicity at 70.5 h,-0.978%
Cc1cccc(CN2CCOCC3(CCN(C4CCOCC4)C3)C2)n1 (centres undefined),cytotoxicity at 70.5 h,7.65%
O=C(NCC1CC1)[C@H]1C[C@H]2OCC[C@H]2N(Cc2ccoc2)C1,cytotoxicity at 70.5 h,22.9%
c1csc(CN2CCC3(CCOCC3COCC3CC3)CC2)n1 (centres undefined),cytotoxicity at 70.5 h,-3.9%
CCOc1ccc(NC(=O)c2cccc(OC)c2OC)cc1,cytotoxicity at 70.5 h,-1.48%
O=C(c1ccnc(-n2ccnc2)c1)N1CCCC(n2ccnc2)C1 (centres undefined),cytotoxicity at 70.5 h,-15%
Oc1cccc(CN2CCN(C3CCc4ccccc4C3)CC2)c1 (centres undefined),cytotoxicity at 70.5 h,19.8%
CN(Cc1ccc(N(C)C)cc1)C(=O)CS(=O)(=O)c1ccc(Cl)cc1,cytotoxicity at 70.5 h,17%
CCOCC(=O)NCCc1nc(C2CC2)cc(C(F)(F)F)n1,cytotoxicity at 70.5 h,-4.83%
CN(C)C[C@H]1O[C@H](Cc2cc(-c3ccccn3)on2)CC[C@@H]1O,cytotoxicity at 70.5 h,-4.76%
CC(C(=O)NCc1ccnc(N2CCN(C)CC2)c1)S(C)(=O)=O (centres undefined),cytotoxicity at 70.5 h,22.3%
CC(=O)NC[C@H]1C[C@@H]2CCN1C[C@@H]2c1cc(-c2cccs2)nn1C,cytotoxicity at 70.5 h,-10.2%
CN(Cc1noc(C2CC2)n1)C1CCN(Cc2ncc[nH]2)C1 (centres undefined),cytotoxicity at 70.5 h,12.2%
Cc1cc(C(=O)NCc2ccnc(N3CCOCC3)c2)c(C)s1,cytotoxicity at 70.5 h,-13.9%
NC(=O)c1cnn2c(C3CCN(CCO)CC3)ccnc12,cytotoxicity at 70.5 h,-3.75%
CCc1nnc(CN2CCC3(CCC(=O)N(C4CCCC4)C3)CC2)o1,cytotoxicity at 70.5 h,-7.05%
COc1cccc(-c2nc(C)c(C(=O)N[C@@H](CCSC)C(=O)O)s2)c1,cytotoxicity at 70.5 h,-21.7%
COc1cc(C2CC(=O)Oc3cc(C)[nH]c(=O)c32)ccc1OC(F)F (centres undefined),cytotoxicity at 70.5 h,10.5%
COc1cc(CN(C)C(=O)NCc2ccccn2)ccc1SC,cytotoxicity at 70.5 h,15.9%
CC(C)c1cc2c(s1)NC(c1ccccc1)NC2=O (centres undefined),cytotoxicity at 70.5 h,-12.1%
Fc1ccc2[nH]c(C3CCCN3CCCn3cccn3)nc2c1 (centres undefined),cytotoxicity at 70.5 h,-6.03%
Cc1nn(CC(O)CN2CCc3ccccc3C2)c(=O)c2ccccc12 (centres undefined),cytotoxicity at 70.5 h,-17.4%
CC(C)c1ccc(CC(=O)N2CCCC3(CN(C)C(=O)O3)C2)cc1 (centres undefined),cytotoxicity at 70.5 h,22.5%
COc1cccc(C(C(=O)O)N2CCC(Cn3cccn3)CC2)c1OC (centres undefined),cytotoxicity at 70.5 h,-9.71%
COCCCN1CCc2cncnc2C1,cytotoxicity at 70.5 h,-18.2%
OCCNC1CCc2cc3c(cc21)OCCO3 (centres undefined),cytotoxicity at 70.5 h,9.99%
O=C(c1ncoc1C1CC1)N1CCN(CCOc2ccccc2)CC1,cytotoxicity at 70.5 h,26%
CCCS(=O)(=O)N1C[C@@H]2CN(Cc3cccs3)CCO[C@@H]2C1,cytotoxicity at 70.5 h,-14.7%
COCC(C)NC(=O)c1cn(C(C)(C)C)c2ncccc12 (centres undefined),cytotoxicity at 70.5 h,-6.59%
CN(Cc1ccncc1)C(=O)[C@H]1CSCN1C(=O)OC(C)(C)C,cytotoxicity at 70.5 h,-2.79%
Cc1nc(CN2CCN(CCCc3nc4ccccc4o3)CC2)no1,cytotoxicity at 70.5 h,-0.419%
C[C@@H](N)C(=O)N1CC2(CCNCC2)c2cc(Cl)ccc21,cytotoxicity at 70.5 h,0.763%
CC(CNC(=O)N1CCN(CC(F)F)CC1)Cc1cccs1 (centres undefined),cytotoxicity at 70.5 h,1.43%
Cc1ccc(C)c(S(=O)(=O)NCCOc2ccc3nnc(C)n3n2)c1,cytotoxicity at 70.5 h,42.7%
CN(C)C(=O)c1cccnc1N1CCOC(c2ccc(Cl)cc2)C1 (centres undefined),cytotoxicity at 70.5 h,-12.8%
CCc1nc(CN(C)C2CCN(CCOc3ccccc3)C2)no1 (centres undefined),cytotoxicity at 70.5 h,0.0512%
C[C@@H]1CN(Cc2cc(C(F)(F)F)ccc2F)CC[C@@]1(O)C1CC1,cytotoxicity at 70.5 h,-2.04%
COCc1nnc(C(=O)N2CCCC(O)C2)o1 (centres undefined),cytotoxicity at 70.5 h,-1.1%
COc1ccc(C(C(=O)O)N2CCC(Cn3cccn3)CC2)cc1F (centres undefined),cytotoxicity at 70.5 h,22.7%
COCCN1C(=O)CC[C@]12CC[C@@H](NCc1cccnc1OC)CC2,cytotoxicity at 70.5 h,-2.58%
Cc1ccc(C2(O)CCN(Cc3nc(C)n4ccccc34)CC2)nc1,cytotoxicity at 70.5 h,-9.79%
COCCCN1C(=O)CC[C@H]2CN(c3ccnc4ccccc34)CC[C@H]21,cytotoxicity at 70.5 h,-5.09%
CCc1ccc(O)c(C(=O)N2CCN(CC(=O)N(CC)CC)CC2)c1,cytotoxicity at 70.5 h,1.25%
NC(=O)c1csc(N2CCN(C3CCc4ccccc4C3)CC2)n1 (centres undefined),cytotoxicity at 70.5 h,-14.7%
COc1ccc(N2CCN(C(=O)CCc3n[nH]c(C)n3)CC2=O)cc1,cytotoxicity at 70.5 h,15.6%
CCC(C(=O)NCCc1nc(C)cc(C(F)(F)F)n1)n1cccn1 (centres undefined),cytotoxicity at 70.5 h,20%
O=C(NCc1cccnc1-n1cncn1)C1CC2(CCNCC2)CN1 (centres undefined),cytotoxicity at 70.5 h,-4.56%
COc1cccc(-n2cc(-c3ccnc(NC(CO)C(C)C)n3)cn2)c1 (centres undefined),cytotoxicity at 70.5 h,13.2%
COCCNC(=O)NCc1ccc(-n2ccc(C(F)(F)F)n2)cc1,cytotoxicity at 70.5 h,-7.44%
CC(C)(C)n1ncc2c1NC(=O)CC2c1cccc(F)c1 (centres undefined),cytotoxicity at 70.5 h,3.13%
Cc1noc([C@@H]2C[C@H]3CN(Cc4scnc4C)C[C@H]3O2)n1,cytotoxicity at 70.5 h,-4.75%
CCC[C@H]1CN(CCS(C)(=O)=O)C[C@@H]1NC(=O)c1cccnn1,cytotoxicity at 70.5 h,7.31%
CN(C)C(=O)NCC1CC2(CO1)CN(c1nncs1)C2 (centres undefined),cytotoxicity at 70.5 h,1.71%
CC(C)c1noc(C2CCCN2S(=O)(=O)N2CCCCCC2)n1 (centres undefined),cytotoxicity at 70.5 h,-6.79%
Cc1csc(N2CCCN(C(=O)CCNc3ncccn3)CC2)n1,cytotoxicity at 70.5 h,-0.695%
O=C(CCc1cc2n(n1)CCN(CCCn1cccc1)C2)N1CCCC1,cytotoxicity at 70.5 h,-10.4%
CC(CCc1ccccc1)N1CCC(C(=O)NCc2ccccc2)CC1 (centres undefined),cytotoxicity at 70.5 h,0.455%
CCOC(=O)C(C)NC(=O)CCSc1ccc(F)cc1 (centres undefined),cytotoxicity at 70.5 h,-2.94%
CCOCC(=O)N1C[C@H]2CN(CC3CC3)C(=O)[C@H]2C1,cytotoxicity at 70.5 h,-5.22%
CN(C)c1ncc2c(n1)CN(C1CC(C)(C)NC(C)(C)C1)C2=O,cytotoxicity at 70.5 h,-6.77%
Cc1noc(C(C)C)c1C(=O)NCc1cc(F)cc(F)c1,cytotoxicity at 70.5 h,-4.07%
COc1cnc(CN2CCN(CC(C)C)C(=O)C2C)cc1O (centres undefined),cytotoxicity at 70.5 h,0.0157%
O=C(Nc1ccccc1)[C@H]1C[C@@H]2CN(S(=O)(=O)c3ccccc3)C[C@H]1O2,cytotoxicity at 70.5 h,-10.9%
Cc1cccc(OCC(=O)NS(=O)(=O)Cc2ccccc2)c1,cytotoxicity at 70.5 h,-5.52%
CCC(NC(=O)C1CCN(S(C)(=O)=O)CC1)c1ccc(OC)c(OC)c1 (centres undefined),cytotoxicity at 70.5 h,-7.44%
CCCNC(=O)C(C)Oc1ccc(F)cc1 (centres undefined),cytotoxicity at 70.5 h,-12.9%
O=C(Cn1ccc2cc(Br)ccc21)NC[C@@H]1CCCN2CCCC[C@H]12,cytotoxicity at 70.5 h,9.59%
CN1CCN(Cc2ccccc2Oc2cncc(C(N)=O)n2)CC1,cytotoxicity at 70.5 h,-3.62%
